Tests used:
[1] = molecular target: T1, Mineralocorticoid receptor (Homo sapiens, UniProt P08235); test: (§1) Antagonistic activity against hMR in co-transfected CV-1 cell; type: functional, cell-based
T1 sequence (P08235 whole entry): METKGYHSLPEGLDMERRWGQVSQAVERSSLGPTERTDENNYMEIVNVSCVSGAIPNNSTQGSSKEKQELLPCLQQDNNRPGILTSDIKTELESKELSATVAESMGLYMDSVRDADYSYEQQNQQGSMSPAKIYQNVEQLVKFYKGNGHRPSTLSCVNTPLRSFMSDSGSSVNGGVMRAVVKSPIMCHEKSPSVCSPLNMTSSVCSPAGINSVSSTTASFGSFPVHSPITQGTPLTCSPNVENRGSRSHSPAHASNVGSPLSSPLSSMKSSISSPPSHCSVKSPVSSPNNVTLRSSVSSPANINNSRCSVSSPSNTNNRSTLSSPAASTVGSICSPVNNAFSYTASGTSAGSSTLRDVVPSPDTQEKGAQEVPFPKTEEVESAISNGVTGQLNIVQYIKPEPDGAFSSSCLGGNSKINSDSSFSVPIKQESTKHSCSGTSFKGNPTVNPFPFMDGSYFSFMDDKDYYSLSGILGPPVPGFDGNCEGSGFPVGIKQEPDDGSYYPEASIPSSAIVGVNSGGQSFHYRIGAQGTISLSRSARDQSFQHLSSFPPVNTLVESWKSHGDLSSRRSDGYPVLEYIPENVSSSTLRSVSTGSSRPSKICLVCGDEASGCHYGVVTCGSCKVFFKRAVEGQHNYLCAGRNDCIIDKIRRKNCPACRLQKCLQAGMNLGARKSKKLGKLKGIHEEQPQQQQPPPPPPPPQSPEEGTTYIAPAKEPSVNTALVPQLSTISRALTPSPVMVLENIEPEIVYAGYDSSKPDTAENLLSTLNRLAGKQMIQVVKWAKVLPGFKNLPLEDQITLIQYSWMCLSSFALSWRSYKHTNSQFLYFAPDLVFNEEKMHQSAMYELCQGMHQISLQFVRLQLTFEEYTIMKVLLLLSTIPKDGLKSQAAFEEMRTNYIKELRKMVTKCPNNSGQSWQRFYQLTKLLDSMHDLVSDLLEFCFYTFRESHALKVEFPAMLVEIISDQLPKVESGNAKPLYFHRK

[2] = molecular target: T2, Androgen receptor (Homo sapiens, UniProt P10275); test: Binding affinity against Androgen receptor transfected into COS cells
T2 sequence (P10275 whole entry): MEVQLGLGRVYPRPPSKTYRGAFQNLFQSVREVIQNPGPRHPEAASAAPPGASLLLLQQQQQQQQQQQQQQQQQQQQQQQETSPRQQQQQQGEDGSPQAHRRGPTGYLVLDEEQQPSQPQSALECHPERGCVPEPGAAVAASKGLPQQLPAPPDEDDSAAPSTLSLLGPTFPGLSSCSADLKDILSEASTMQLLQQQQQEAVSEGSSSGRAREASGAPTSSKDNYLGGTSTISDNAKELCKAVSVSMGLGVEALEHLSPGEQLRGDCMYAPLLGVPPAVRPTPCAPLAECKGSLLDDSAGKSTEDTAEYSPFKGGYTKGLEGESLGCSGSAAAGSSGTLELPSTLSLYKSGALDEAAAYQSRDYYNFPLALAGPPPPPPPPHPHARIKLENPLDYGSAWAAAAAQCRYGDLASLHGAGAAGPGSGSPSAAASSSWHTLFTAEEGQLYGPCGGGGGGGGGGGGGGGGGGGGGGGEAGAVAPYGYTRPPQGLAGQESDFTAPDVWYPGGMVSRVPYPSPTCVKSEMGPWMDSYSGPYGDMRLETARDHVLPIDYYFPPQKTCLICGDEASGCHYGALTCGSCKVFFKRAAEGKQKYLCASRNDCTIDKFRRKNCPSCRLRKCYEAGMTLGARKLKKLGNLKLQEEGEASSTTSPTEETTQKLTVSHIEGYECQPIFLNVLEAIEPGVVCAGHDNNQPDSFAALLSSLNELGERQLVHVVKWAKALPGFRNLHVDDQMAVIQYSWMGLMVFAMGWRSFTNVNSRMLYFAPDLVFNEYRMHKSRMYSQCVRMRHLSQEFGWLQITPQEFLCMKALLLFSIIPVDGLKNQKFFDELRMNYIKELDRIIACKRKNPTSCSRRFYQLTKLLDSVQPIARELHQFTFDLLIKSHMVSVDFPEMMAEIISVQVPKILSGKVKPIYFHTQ

[3] = molecular target: T3, Glucocorticoid receptor (Homo sapiens, UniProt P04150); test: (§2) Antagonistic activity against Glucocorticoid receptor in co-transfected CV-1 cell; type: functional, cell-based
T3 sequence (P04150 whole entry): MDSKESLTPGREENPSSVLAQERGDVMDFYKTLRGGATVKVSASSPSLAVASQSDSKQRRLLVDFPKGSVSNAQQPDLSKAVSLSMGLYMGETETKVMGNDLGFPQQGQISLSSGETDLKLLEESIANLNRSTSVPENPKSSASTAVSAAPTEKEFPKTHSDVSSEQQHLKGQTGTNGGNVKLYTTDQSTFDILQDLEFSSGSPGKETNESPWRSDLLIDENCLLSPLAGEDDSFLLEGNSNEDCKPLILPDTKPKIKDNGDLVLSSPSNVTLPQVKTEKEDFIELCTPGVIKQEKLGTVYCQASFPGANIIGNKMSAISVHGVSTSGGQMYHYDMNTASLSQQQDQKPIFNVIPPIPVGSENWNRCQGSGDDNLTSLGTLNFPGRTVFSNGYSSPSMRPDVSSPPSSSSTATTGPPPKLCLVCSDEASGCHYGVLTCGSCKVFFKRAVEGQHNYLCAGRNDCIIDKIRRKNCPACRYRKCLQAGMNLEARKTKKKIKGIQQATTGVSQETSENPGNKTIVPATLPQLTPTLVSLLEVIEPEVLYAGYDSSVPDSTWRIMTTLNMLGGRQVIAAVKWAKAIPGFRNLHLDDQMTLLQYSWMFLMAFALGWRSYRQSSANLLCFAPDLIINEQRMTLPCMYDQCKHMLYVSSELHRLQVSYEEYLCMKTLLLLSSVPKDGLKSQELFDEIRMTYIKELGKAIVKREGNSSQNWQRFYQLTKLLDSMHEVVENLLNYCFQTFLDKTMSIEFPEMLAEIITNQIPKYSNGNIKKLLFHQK

[4] = molecular target: T2, Androgen receptor; test: Agonistic activity (EC50) against human androgen receptor (hAR) in co-transfected CV-1 cell; type: functional, cell-based
[5] = molecular target: T4, Progesterone receptor (Homo sapiens, UniProt P06401); test: (§3) Antagonistic activity against hPR in co-transfected CV-1 cell; type: functional, cell-based
T4 sequence (P06401 whole entry): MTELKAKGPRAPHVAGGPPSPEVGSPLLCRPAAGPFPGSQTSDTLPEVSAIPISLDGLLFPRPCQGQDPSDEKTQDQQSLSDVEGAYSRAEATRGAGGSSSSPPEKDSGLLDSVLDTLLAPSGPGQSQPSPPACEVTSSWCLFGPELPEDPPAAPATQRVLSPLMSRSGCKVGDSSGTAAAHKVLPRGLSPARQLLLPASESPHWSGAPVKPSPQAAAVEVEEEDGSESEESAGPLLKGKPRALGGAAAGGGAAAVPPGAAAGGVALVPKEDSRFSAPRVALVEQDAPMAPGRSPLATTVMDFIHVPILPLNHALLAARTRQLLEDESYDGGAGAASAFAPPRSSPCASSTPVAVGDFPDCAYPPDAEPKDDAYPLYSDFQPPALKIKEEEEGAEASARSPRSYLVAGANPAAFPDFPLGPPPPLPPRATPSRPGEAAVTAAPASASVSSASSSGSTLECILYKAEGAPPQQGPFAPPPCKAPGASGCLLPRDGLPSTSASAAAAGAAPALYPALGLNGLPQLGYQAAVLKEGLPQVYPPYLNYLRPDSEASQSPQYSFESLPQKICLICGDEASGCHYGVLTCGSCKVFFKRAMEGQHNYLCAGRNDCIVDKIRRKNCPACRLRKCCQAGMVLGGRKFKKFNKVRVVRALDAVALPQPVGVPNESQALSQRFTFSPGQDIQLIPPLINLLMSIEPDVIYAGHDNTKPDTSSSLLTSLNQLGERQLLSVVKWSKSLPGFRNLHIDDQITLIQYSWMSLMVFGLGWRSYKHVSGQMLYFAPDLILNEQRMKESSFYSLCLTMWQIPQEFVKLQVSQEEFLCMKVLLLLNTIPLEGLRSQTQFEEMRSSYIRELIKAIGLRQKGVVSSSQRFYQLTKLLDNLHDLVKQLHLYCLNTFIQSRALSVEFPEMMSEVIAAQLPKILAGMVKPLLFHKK

[6] = molecular target: T2, Androgen receptor
[7] = molecular target: T2, Androgen receptor; test: Binding affinity against hAR androgen receptor expressed in COS cells; type: cell-based
[8] = molecular target: T2, Androgen receptor; conditions: cv-1
Description: Agonistic activity against human androgen receptor (hAR) in co-transfected CV-1 cell

[9] = molecular target: T2, Androgen receptor; test: Antagonistic activity (IC50) against human androgen receptor (hAR) in co-transfected CV-1 cell; type: functional, cell-based
[10] = molecular target: T5, Estrogen receptor (Homo sapiens, UniProt Q92731+P03372); test: (§4) Antagonistic activity against Estrogen receptor in co-transfected CV-1 cell; type: functional, cell-based
[11] = molecular target: T5, Estrogen receptor; test: as §4; type: functional, cell-based; remark: listed apart in the source
[12] = molecular target: T6, Mineralocorticoid receptor (Homo sapiens) (UniProt P08235); test: as §1; type: functional, cell-based
T6 sequence (whole entry): T1 sequence (P08235 whole entry)

[13] = molecular target: T7, Glucocorticoid receptor (Homo sapiens) (UniProt P04150); test: as §2; type: functional, cell-based
T7 sequence (whole entry): T3 sequence (P04150 whole entry)

[14] = molecular target: T8, Progesterone receptor (Homo sapiens) (UniProt P06401); test: as §3; type: functional, cell-based
T8 sequence (whole entry): T4 sequence (P06401 whole entry)

SMILES	IC50 [1] [nM]	Ki [2] [nM]	IC50 [3] [nM]	EC50 [4] [nM]	IC50 [5] [nM]	IC50 [6] [nM]	Ki [7] [nM]	EC50 [8]	IC50 [9]	Efficacy [10] [%]	IC50 [11] [nM]	Efficacy [12] [%]	Efficacy [13] [%]	Efficacy [14] [%]
C[C@]12CCCC[C@H]1Nc1cc3[nH]c(=O)cc(C(F)(F)F)c3cc12	1900	21	2100	25	730	–	–	–	–	–	–	–	–	–
CN1c2cc3c(cc2[C@H]2CCCC(C)(C)[C@H]21)c(C(F)(F)F)cc(=O)n3C	–	–	–	–	–	27	59	Not Active	–	–	–	–	–	–
C[C@H]1Nc2cc3c(cc2C1(C)C)c(C(F)(F)F)cc(=O)n3C	–	9	–	380	–	22	–	–	–	–	–	–	–	–
C[C@H]1Nc2cc3[nH]c(=O)cc(C(F)(F)F)c3cc2C1(C)C	–	21	–	99	–	48	–	–	–	–	–	–	–	–
C[C@H]1CC[C@H]2Nc3cc4nc(O)cc(C(F)(F)F)c4cc3[C@H]2C1	–	23	–	64	–	–	–	–	Not Active	–	–	–	–	–
Oc1cc(C(F)(F)F)c2cc3c(cc2n1)N[C@@H]1CCCC[C@H]31	2000	5	5800	5	170	–	–	–	Not Active	< 20	> 10000	54	33	91
C[C@]12CCCC[C@H]1Nc1cc3nc(O)cc(C(F)(F)F)c3cc12	–	–	–	–	–	–	–	–	Not Active	< 20	> 10000	43	43	96
C[C@@H]1c2cc3c(C(F)(F)F)cc(O)nc3cc2N[C@@H]1C	2000	6	2500	5	1900	–	–	–	Not Active	< 20	> 10000	29	35	88
C[C@H]1N(C)c2cc3c(cc2C1(C)C)c(C(F)(F)F)cc(=O)n3C	–	33	–	–	–	56	–	Not Active	–	–	–	–	–	–
C[C@H]1CC[C@@H]2[C@H](C1)c1cc3c(C(F)(F)F)cc(=O)n(C)c3cc1N2C	–	78	–	–	–	54	–	Not Active	–	–	–	–	–	–

From ChEMBL document CHEMBL1130772, “New nonsteroidal androgen receptor modulators based on 4-(trifluoromethyl)-2(1H)-pyrrolidino[3,2-g] quinolinone” (Bioorg Med Chem Lett, 1998)
